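How tested: cells in 96-well plates exposed to compound for 48 hours at five concentrations. GI50 = concentration required for 50% inhibition of growth.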 Activity calls are given as the source filed them. No stated cut-off is given here; in the data, active = GI50 up to about 1.1 µM and inactive = higher. Some results are limits rather than exact numbers.

Test systems include DLD-1; HOP-18; KM-20L2; LXFL 529; M19-MEL; SNB-78; XF498; DMS-273; RXF 631.
Holding throughout (assay): NCI tumour cell line growth inhibition, 48 h

As to `Cc1cc2c(=O)cc(-c3ccc(Cl)c(Cl)c3)oc2c(C(=O)O)c1C`, the GI50 in the assay with DLD-1, in the assay with HOP-18, in the assay on KM-20L2, with LXFL 529, with M19-MEL and in the assay on SNB-78 was > 100 µM (inactive) in each case. For the same molecule, in the assay on XF498, the GI50 is > 100 µM (inactive).
On to `Nc1nc(N)c(CCCCc2ccccc2)c(N)n1`, for which the GI50 in the assay with DLD-1, in the assay with DMS-273, with KM-20L2, with LXFL 529, in the assay on M19-MEL and with XF498 was > 100 µM (inactive) throughout.
For `CCC1=CCC(P(=O)(c2ccccc2)c2ccccc2)CC1C` (stereo unspecified), the GI50 in the assay with DMS-273 was 36.3 µM (inactive); in the assay on HOP-18, 22.8 µM (inactive); in the assay on KM-20L2 it was 37.1 µM (inactive); in the assay with LXFL 529 it was 41.8 µM (inactive); in the assay on M19-MEL, 39.5 µM (inactive); in the assay with SNB-78 it was 61.2 µM (inactive). The GI50 in the assay with XF498 was 40.1 µM (inactive).
Consider `CN1C(=O)C(C)(C)NS1(=O)=O`, for which the GI50 with DLD-1, in the assay on DMS-273, in the assay with KM-20L2, with LXFL 529, in the assay on M19-MEL and in the assay on RXF 631 was > 100 µM (inactive) throughout. Besides, the GI50 with SNB-78 and in the assay with XF498 was > 100 µM (inactive) in each case.
As for `Cc1ccc(C(=O)N(Cc2ccccc2)Cc2ccccc2)cc1/N=N/N(C)C`, the GI50 in the assay with DLD-1 is 21.4 µM (inactive); in the assay on DMS-273 it was 41.8 µM (inactive); in the assay on LXFL 529, 6.31 µM (inactive); in the assay with SNB-78, 27.2 µM (inactive).
For `O=C(CC1(O)C(=O)Nc2ccccc21)c1cccc(O)c1` (stereo unspecified), the GI50 in the assay with DLD-1, with DMS-273, in the assay with KM-20L2, with LXFL 529, with M19-MEL and in the assay on RXF 631 was > 100 µM (inactive) throughout. In addition, the GI50 in the assay on SNB-78 was > 100 µM (inactive); in the assay with XF498, 42.5 µM (inactive).
For `C#CC1(O)CCC2C3CCc4cc(Oc5nc(F)nc(-c6c7ccccc7c7sc8ccccc8n67)n5)ccc4C3CC[C@@]21C` (stereo partly specified), the GI50 with DLD-1 was > 100 µM (inactive); in the assay with DMS-273, 75.5 µM (inactive); in the assay on KM-20L2 it was > 100 µM (inactive); in the assay on LXFL 529 it was > 100 µM (inactive); in the assay with M19-MEL it was > 100 µM (inactive); in the assay on XF498, > 100 µM (inactive).
Turning to `COC(=O)[C@@H]1C[C@H](c2ccc(OC)c(OC)c2)OC1=O.COC(=O)[C@H]1C[C@H](c2ccc(OC)c(OC)c2)OC1=O`, the GI50 with DLD-1, in the assay on DMS-273, in the assay with KM-20L2, in the assay with LXFL 529, with M19-MEL and in the assay on RXF 631 was > 100 µM (inactive) each time. The GI50 in the assay with SNB-78 and in the assay with XF498 was > 100 µM (inactive) each time.
As for `C/C(CN1C(=O)c2ccccc2C1=O)=N\NS(=O)(=O)c1ccc(C)cc1`, the GI50 with DLD-1, in the assay on DMS-273, with HOP-18, in the assay on KM-20L2, in the assay on LXFL 529 and in the assay with M19-MEL was > 100 µM (inactive) in each case. In addition, the GI50 with SNB-78 was > 100 µM (inactive).
On to `C/N=N/N(C)C(=O)NC`, for which the GI50 with DLD-1, with HOP-18, with KM-20L2, in the assay with LXFL 529 and in the assay on M19-MEL was > 100 µM (inactive) throughout.
As for `CCc1cccc(C)c1NC(=O)C(=O)Cc1nc2ccccc2s1`, the GI50 in the assay with DLD-1, in the assay with DMS-273, with HOP-18, in the assay with KM-20L2, in the assay with LXFL 529 and with M19-MEL was > 100 µM (inactive) throughout. In addition, the GI50 in the assay with RXF 631 and in the assay with SNB-78 was > 100 µM (inactive) throughout.
For the molecule `CN(C)CCNc1ccc2nnn3c4ccc(Cl)cc4c(=O)c1c23`, the GI50 with DLD-1 is 3.21 µM (inactive); with DMS-273, 2.82 µM (inactive); with KM-20L2 it was 2.86 µM (inactive); with LXFL 529, 3.23 µM (inactive); with M19-MEL, 3.51 µM (inactive); in the assay on RXF 631, 2.37 µM (inactive). Besides, the GI50 with SNB-78 is 11.9 µM (inactive); in the assay with XF498 it was 8.73 µM (inactive).
Regarding `N/N=C1\C(=O)N(C2CCCCCC2)C(=O)C1C(=O)NC1CCCCCC1` (stereo unspecified), the GI50 in the assay on DLD-1 was 41.5 µM (inactive); in the assay on HOP-18, 31 µM (inactive); with KM-20L2 it was 19.5 µM (inactive); in the assay with LXFL 529, 22.8 µM (inactive); with M19-MEL, 37.9 µM (inactive); in the assay with SNB-78 it was 21.8 µM (inactive).
Consider `N[C@H]1C2C3CC4C5CC(C42)C1(c1ccccc1)C53` (stereo partly specified), for which the GI50 in the assay on DLD-1, in the assay with DMS-273, with HOP-18, in the assay on KM-20L2, in the assay with LXFL 529 and in the assay on M19-MEL was > 100 µM (inactive) in each case. Further, the GI50 in the assay with SNB-78 and with XF498 was > 100 µM (inactive) in each case.
As for `Cc1cc(N(CCC#N)CCC#N)ccc1/C=C(\NC(=O)/C=C/c1ccccc1)NC(=O)Nc1ccc(Cl)cc1`, the GI50 with DLD-1 was 75 µM (inactive); in the assay on DMS-273, 5.04 µM (inactive); in the assay with KM-20L2, 5.37 µM (inactive); with LXFL 529 it was 0.652 µM (active); in the assay with M19-MEL, 93.1 µM (inactive); with SNB-78 it was > 10 µM (inactive). Further, in the assay with XF498, the GI50 was > 100 µM (inactive).
Take `C=Nc1ccc([N+](=O)[O-])cc1`: the GI50 in the assay with DLD-1 was > 100 µM (inactive); in the assay with DMS-273, > 100 µM (inactive); in the assay with HOP-18, > 26.1 µM (inactive); with KM-20L2, > 100 µM (inactive); in the assay on LXFL 529 it was > 72.8 µM (inactive); in the assay on M19-MEL it was > 100 µM (inactive). The GI50 with SNB-78 and with XF498 was > 100 µM (inactive) each time.
On to `COC(=O)[C@@H]1c2[nH]c3ccccc3c2C[C@@H]2c3ccccc3NC(=O)[C@@H]21`, for which the GI50 in the assay with DLD-1 was > 100 µM (inactive); in the assay on DMS-273 it was > 57.5 µM (inactive); with KM-20L2 it was > 100 µM (inactive); in the assay on LXFL 529 it was > 65.2 µM (inactive); in the assay on M19-MEL, > 89.3 µM (inactive); in the assay on SNB-78, > 76.4 µM (inactive). Further, in the assay on XF498, the GI50 is > 100 µM (inactive).
Turning to `COC1=CC(=O)C2[C@H]3Cc4ccccc4[C@H]3C2(C)C1=O` (stereo partly specified), the GI50 in the assay on DLD-1 is > 100 µM (inactive); in the assay with DMS-273, > 100 µM (inactive); with KM-20L2 it was 77.3 µM (inactive); with LXFL 529 it was > 100 µM (inactive); in the assay on M19-MEL, 83.2 µM (inactive); in the assay on RXF 631 it was > 100 µM (inactive). Also, the GI50 in the assay with SNB-78 was 78 µM (inactive); with XF498, 51.5 µM (inactive).
On to `COc1ccc(C(=O)N/N=C/c2c(C)n(C)n(-c3ccccc3)c2=O)cc1`, for which the GI50 in the assay with DLD-1, in the assay with DMS-273, in the assay with HOP-18, in the assay with KM-20L2, in the assay on LXFL 529 and in the assay with M19-MEL was > 100 µM (inactive) in each case. For the same molecule, the GI50 with SNB-78 and in the assay on XF498 was > 100 µM (inactive) throughout.
As to `CN(Cc1ccccc1)C(=O)c1ccccc1C(=O)O`, the GI50 in the assay on DLD-1, in the assay with DMS-273, in the assay with KM-20L2, in the assay with LXFL 529, in the assay on M19-MEL and in the assay on RXF 631 was > 100 µM (inactive) each time. In the assay on XF498, the GI50 was > 100 µM (inactive).
Turning to `CC1=[N+]([O-])c2ccccc2C(=O)C1=O`, the GI50 with DLD-1 is > 100 µM (inactive); in the assay on DMS-273 it was > 100 µM (inactive); in the assay on HOP-18, > 100 µM (inactive); in the assay with KM-20L2 it was > 100 µM (inactive); in the assay with LXFL 529, > 100 µM (inactive); in the assay on M19-MEL it was 44.8 µM (inactive). The GI50 with SNB-78 and with XF498 was > 100 µM (inactive) throughout.
Consider `CCCN(CCC)c1c([N+](=O)[O-])cc(C(=O)N(C)C)cc1[N+](=O)[O-]`, for which the GI50 in the assay with DLD-1 was > 100 µM (inactive); in the assay on DMS-273, 30.2 µM (inactive); in the assay with LXFL 529, > 100 µM (inactive); with M19-MEL it was 92 µM (inactive); in the assay with SNB-78, > 100 µM (inactive); in the assay with XF498, 54.7 µM (inactive).
Consider `CC(NC(=O)/C(C#N)=C/c1ccc2[nH]ccc2c1)c1ccccc1` (stereo unspecified), for which the GI50 was 19.1 µM (inactive) in the assay with DLD-1; 23.5 µM (inactive) in the assay on DMS-273; 24.3 µM (inactive) in the assay on HOP-18; 18.6 µM (inactive) with KM-20L2; 19.5 µM (inactive) with LXFL 529; 38.7 µM (inactive) in the assay with SNB-78.
In the case of `CCOC(=O)C(C)(c1cn(C)c2ccccc12)c1cn(C)c2ccccc12`, the GI50 in the assay with DLD-1 is > 100 µM (inactive); in the assay with DMS-273, > 100 µM (inactive); in the assay on KM-20L2 it was > 100 µM (inactive); in the assay on LXFL 529, > 100 µM (inactive); with M19-MEL, > 100 µM (inactive); in the assay with RXF 631, 50.8 µM (inactive). Also, the values for the GI50 in the assay on SNB-78 and with XF498 were 70 µM (inactive) and 32.3 µM (inactive), respectively.
For `NC(=O)COc1c(Br)cc(Br)cc1Br`, the GI50 with DLD-1, in the assay on DMS-273, in the assay on KM-20L2, in the assay on M19-MEL, in the assay with RXF 631 and in the assay on XF498 was > 100 µM (inactive) each time.
As for `O=C1/C=C(/c2ccc(O)cc2)[C@@H](O)Cc2ccc(O)cc2O1`, the GI50 in the assay with DLD-1 was > 100 µM (inactive); in the assay on KM-20L2, > 100 µM (inactive); in the assay on LXFL 529, 63.7 µM (inactive); in the assay with M19-MEL, > 100 µM (inactive); with RXF 631 it was 38.2 µM (inactive); in the assay with SNB-78, 41.8 µM (inactive).

The record behind these values is ChEMBL document CHEMBL1201862, “PubChem BioAssay data set” (2004).
